# Measured values published in patent US10028942B2 (priority 2013, dated 2018).
# Target: T1, DLK (Homo sapiens, UniProt Q12852)
# T1 sequence (Q12852 1-520): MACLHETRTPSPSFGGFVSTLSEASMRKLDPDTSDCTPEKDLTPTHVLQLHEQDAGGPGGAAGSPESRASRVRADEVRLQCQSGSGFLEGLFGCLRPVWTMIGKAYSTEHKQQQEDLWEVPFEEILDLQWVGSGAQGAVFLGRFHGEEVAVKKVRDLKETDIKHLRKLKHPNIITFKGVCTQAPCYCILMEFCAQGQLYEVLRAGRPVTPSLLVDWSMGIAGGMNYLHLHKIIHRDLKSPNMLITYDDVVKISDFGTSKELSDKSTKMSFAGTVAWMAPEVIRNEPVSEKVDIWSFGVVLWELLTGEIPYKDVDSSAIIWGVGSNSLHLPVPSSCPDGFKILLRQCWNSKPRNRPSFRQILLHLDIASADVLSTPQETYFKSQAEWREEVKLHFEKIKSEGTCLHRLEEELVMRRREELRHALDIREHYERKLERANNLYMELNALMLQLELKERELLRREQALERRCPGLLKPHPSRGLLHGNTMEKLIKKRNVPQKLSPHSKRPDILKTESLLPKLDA
# Conditions: read-out: DLK (Ki) μM; TR-FRET; 5 nM GST-tagged DLK (catalytic domain aa 1-520), 40 nM HIS-MKK4 K131M substrate, 30 μM ATP, 60 minutes
row,Ki [µM],Compound
1,0.12,"CC(C)n1nc(-c2cnc3[nH]cc(C#N)c3c2)cc1C1CCN(C2COC2)CC1 [Compound 77, 5-(1-isopropyl-5-(1-(oxetan-3-yl)pipe-ridin-4-yl)-1H-pyrazol-3-yl)-1H-pyrro-lo[2,3-b]pyridine-3-carbonitrile]"
2,0.084,"Nc1ncc(-c2cc(C3CCN(C4COC4)CC3)n(C3CCCC3)n2)cc1C(F)(F)F [Compound 81, 5-(1-cyclopentyl-5-(1-(oxetan-3-yl)piperidin-4-yl)-1H-pyrazol-3-yl)-3-(trifluoromethyl)pyridin-2-amine]"
3,0.39,"CCOc1cc(-c2cc(C3CCN(C4COC4)CC3)n(C(C)C)n2)cnc1N [Compound 83, 3-ethoxy-5-(1-isopropyl-5-(1-(oxetan-3-yl)piperidin-4-yl)-1H-pyrazol-3-yl)pyridin-2-amine]"
4,0.26,"CC(C)Oc1cc(-c2cc(C3CCN(C4COC4)CC3)n(C(C)C)n2)cnc1N [Compound 84, 3-isopropoxy-5-(1-isopropyl-5-(1-(oxe-tan-3-yl)piperidin-4-yl)-1H-pyrazol-3-yl)pyridin-2-amine]"
5,0.99,"CCOc1cc(-c2cc(C3CCN(C4COC4)CC3)n(C3CCC(F)(F)C3)n2)cnc1N (stereo not drawn) [Compound 85, 5-(1-(3,3-difluorocyclopentyl)-5-(1-(oxetan-3-yl)piperidin-4-yl)-1H-pyra-zol-3-yl)-3-ethoxypyridin-2-amine]"
6,0.91,"CC(C)Oc1cc(-c2cc(C3CCN(C4COC4)CC3)n(C3CCC(F)(F)C3)n2)cnc1N (stereo not drawn) [Compound 86, 5-(1-(3,3-difluorocyclopentyl)-5-(1-(oxetan-3-yl)piperidin-4-yl)-1H-pyra-zol-3-yl)-3-isopropoxypyridin-2-amine]"
7,0.64,"Nc1ncc(-c2cc(C3CCN(C4COC4)CC3)n(C3CCC(F)(F)C3)n2)cc1OCC1CC1 (stereo not drawn) [Compound 87, 3-(cyclopropylmethoxy)-5-(1-(3,3-di-fluorocyclopentyl)-5-(1-(oxetan-3-yl)piperidin-4-yl)-1H-pyrazol-3-yl)pyri-din-2-amine]"
8,0.26,"COc1cc(-c2cc(C3CCN(C4COC4)CC3)n(C3CCCC3)n2)cnc1N [Compound 88, 5-(1-cyclopentyl-5-(1-(oxetan-3-yl)piperidin-4-yl)-1H-pyrazol-3-yl)-3-methoxypyridin-2-amine]"
9,0.14,"COc1cc(-c2cc(C3CCN(C4COC4)CC3)n(C(C)C)n2)cnc1N [Compound 89, 5-(1-isopropyl-5-(1-(oxetan-3-yl)pipe-ridin-4-yl)-1H-pyrazol-3-yl)-3-meth-oxypyridin-2-amine]"
10,0.12,"CC(C)Oc1cc(-c2cc(C3CCN(C4COC4)CC3)n(C3CCCC3)n2)cnc1N [Compound 90, 5-(1-cyclopentyl-5-(1-(oxetan-3-yl)piperidin-4-yl)-1H-pyrazol-3-yl)-3-iso-propoxypyridin-2-amine]"
11,0.94,"CC(C)n1nc(-c2cnc(N)c(C#N)c2)cc1C1CCN(C2COC2)CC1 [Compound 92, 2-amino-5-(1-isopropyl-5-(1-(oxetan-3-yl)piperidin-4-yl)-1H-pyrazol-3-yl)nicotinonitrile]"
12,0.17,"N#Cc1cc(-c2cc(C3CCN(C4COC4)CC3)n(C3CCCC3)n2)cnc1N [Compound 93, 2-amino-5-(1-cyclopentyl-5-(1-(oxetan-an-3-yl)piperidin-4-yl)-1H-pyrazol-3-yl)nicotinonitrile]"
13,1.2,"CC(C)n1nc(-c2cnc3c(c2)C(C)(C)CN3)cc1C1CCN(C2COC2)CC1 [Compound 95, 5-(1-isopropyl-5-(1-(oxetan-3-yl)piperidin-4-yl)-1H-pyrazol-3-yl)-3,3-dimethyl-2,3-dihydro-1H-pyrrolo[2,3-b]pyridine]"
14,0.36,"CC(C)n1nc(-c2cnc(N)c(C3CC3)c2)cc1C1CCN(C2COC2)CC1 [Compound 98, 3-cyclopropyl-5-(1-isopropyl-5-(1-(oxe-tan-3-yl)piperidin-4-yl)-1H-pyra-zol-3-yl)pyridin-2-amine]"
15,0.069,"CC(C)n1nc(-c2cnc(N)c(OC(F)F)c2)cc1C1CCN(C2COC2)CC1 [Compound 99, 3-(difluoromethoxy)-5-(1-isopropyl-5-(1-(oxetan-3-yl)piperidin-4-yl)-1H-pyrazol-3-yl)pyridin-2-amine]"
16,0.001,"CC(C)n1nc(-c2cnc3[nH]cc(C(F)(F)F)c3c2)cc1C1CCN(C2CCC2)CC1 [Compound 101, 5-(5-(1-cyclobutylpiperidin-4-yl)-1-iso-propyl-1H-pyrazol-3-yl)-3-(trifluoro-methyl)-1H-pyrrolo[2,3-b]pyridine]"
17,0.034,"CC(C)n1nc(-c2cnc(N)c(C(F)(F)F)c2)cc1C1CCN(C2CCC2)CC1 [Compound 102, 5-(5-(1-cyclobutylpiperidin-4-yl)-1-isopropyl-1H-pyrazol-3-yl)-3-(trifluoromethyl)pyridin-2-amine]"
18,0.096,"Nc1ncc(-c2cc([C@H]3[C@@H]4COC[C@@H]43)n(C3CCCC3)n2)cc1Cl [Compound 105, 5-(5-((1R,5S,6s)-3-oxabicyclo[3.1.0]hexan-6-yl)-1-cyclopentyl-1H-pyra-zol-3-yl)-3-chloropyridin-2-amine]"
19,0.0024,"Nc1ncc(-c2cc([C@H]3[C@@H]4CNC[C@@H]43)n(CC(F)(F)F)n2)cc1C(F)(F)F [Compound 107, 5-(5-((1R,5S,6r)-3-azabicyclo[3.1.0]hexan-6-yl)-1-(2,2,2-trifluoroethyl)-1H-pyrazol-3-yl)-3-(trifluoromethyl) pyridin-2-amine]"
20,0.0049,"CC(C)n1nc(-c2cnc(N)c(C(F)(F)F)c2)cc1[C@H]1[C@@H]2CN(S(C)(=O)=O)C[C@@H]21 [Compound 108, 5-(1-isopropyl-5-((1R,5S,6r)-3-(meth-ylsulfonyl)-3-azabicyclo[3.1.0]hex-an-6-yl)-1H-pyrazol-3-yl)-3-(trifluoro-methyl)pyridin-2-amine]"
21,0.001,"CC(C)n1nc(-c2cnc(N)c(C(F)(F)F)c2)cc1[C@H]1[C@@H]2CN(CC(F)F)C[C@@H]21 [Compound 109, 5-(5-((1R,5S,6r)-3-(2,2-difluoroethyl)-3-azabicyclo[3.1.0]hexan-6-yl)-1-isopropyl-1H-pyrazol-3-yl)-3-(trifluoro-methyl)pyridin-2-amine]"
22,0.0045,"CC(C)n1nc(-c2cnc(N)c(OC(F)F)c2)cc1[C@H]1[C@@H]2CN(CC(F)(F)F)C[C@@H]21 [Compound 110, 3-(difluoromethoxy)-5-(1-isopropyl-5-((1R,5S,6r)-3-(2,2,2-trifluoroethyl)-3-azabicyclo[3.1.0]hexan-6-yl)-1H-pyrazol-3-yl)pyridin-2-amine]"
23,0.18,"Nc1ncc(-c2cc([C@H]3[C@@H]4CN(CC(F)(F)F)C[C@@H]43)n(C3COC3)n2)cc1Cl [Compound 111, 3-chloro-5-(1-(oxetan-3-yl)-5-((1R,5S, 6r)-3-(2,2,2-trifluoroethyl)-3-azabi-cyclo[3.1.0]hexan-6-yl)-1H-pyrazol-3-yl)pyridin-2-amine]"
24,0.064,"N#Cc1cc(-c2cc([C@H]3[C@@H]4CN(CC(F)(F)F)C[C@@H]43)n(CC3CC3)n2)cnc1N [Compound 113, 2-amino-5-(1-(cyclopropylmethyl)-5-((1R,5S,6r)-3-(2,2,2-trifluoroethyl)-3-azabicyclo[3.1.0]hexan-6-yl)-1H-pyrazol-3-yl)nicotinonitrile]"
25,0.96,"CC(C)n1nc(-c2cnc(N)c3cn[nH]c23)cc1[C@H]1[C@@H]2CN(CC(F)(F)F)C[C@@H]21 [Compound 114, 7-(1-isopropyl-5-((1R,5S,6r)-3-(2,2,2-trifluoroethyl)-3-azabicyclo[3.1.0]hexan-6-yl)-1H-pyrazol-3-yl)-1H-py-razolo[4,3-c]pyridin-4-amine]"
26,0.0056,"CC(=O)N1C[C@@H]2[C@H](C1)[C@H]2c1cc(-c2cnc(N)c(C(F)(F)F)c2)nn1C(C)C [Compound 115, 1-((1R,5S,6r)-6-(3-(6-amino-5-(trifluoro-methyl)pyridin-3-yl)-1-isopropyl-1H-pyrazol-5-yl)-3-azabicyclo[3.1.0]hexan-3-yl)ethanone]"
27,0.0094,"COCCN1C[C@@H]2[C@H](C1)[C@H]2c1cc(-c2cnc(N)c(C(F)(F)F)c2)nn1C(C)C [Compound 117, 5-(1-isopropyl-5-((1R,5 S,6r)-3-(2-methoxyethyl)-3-azabicyclo[3.1.0]hexan-6-yl)-1H-pyrazol-3-yl)-3-(trifluoromethyl)pyridin-2-amine]"
28,0.034,"COCCN1C[C@@H]2[C@H](C1)[C@H]2c1cc(-c2cnc(N)c(Cl)c2)nn1C(C)C [Compound 118, 3-chloro-5-(1-isopropyl-5-((1R,5S,6r)-3-(2-methoxyethyl)-3-azabicyclo[3.1.0]hexan-6-yl)-1H-pyrazol-3-yl) pyridin-2-amine]"
29,0.0055,"COCCN1C[C@@H]2[C@H](C1)[C@H]2c1cc(-c2cnc(N)c(OC(F)F)c2)nn1C(C)C [Compound 119, 3-(difluoromethoxy)-5-(1-isopropyl-5-((1R,5S,6r)-3-(2-methoxyethyl)-3-azabicyclo[3.1.0]hexan-6-yl)-1H-py-razol-3-yl)pyridin-2-amine]"
30,0.03,"COCCN1C[C@@H]2[C@H](C1)[C@H]2c1cc(-c2cnc(N)c(Cl)c2)nn1CC(C)C [Compound 120, 3-chloro-5-(1-isobutyl-5-((1R,5S,6r)-3-(2-methoxyethyl)-3-azabicyclo[3.1.0]hexan-6-yl)-1H-pyrazol-3-yl)pyri-din-2-amine]"
